The results in this text go back to ChEMBL document CHEMBL1909046, “DrugMatrix in vitro pharmacology data”.

The target of data set [1] is T1, 5-hydroxytryptamine receptor 2C (Homo sapiens, UniProt P28335).
T1 sequence (P28335 whole entry): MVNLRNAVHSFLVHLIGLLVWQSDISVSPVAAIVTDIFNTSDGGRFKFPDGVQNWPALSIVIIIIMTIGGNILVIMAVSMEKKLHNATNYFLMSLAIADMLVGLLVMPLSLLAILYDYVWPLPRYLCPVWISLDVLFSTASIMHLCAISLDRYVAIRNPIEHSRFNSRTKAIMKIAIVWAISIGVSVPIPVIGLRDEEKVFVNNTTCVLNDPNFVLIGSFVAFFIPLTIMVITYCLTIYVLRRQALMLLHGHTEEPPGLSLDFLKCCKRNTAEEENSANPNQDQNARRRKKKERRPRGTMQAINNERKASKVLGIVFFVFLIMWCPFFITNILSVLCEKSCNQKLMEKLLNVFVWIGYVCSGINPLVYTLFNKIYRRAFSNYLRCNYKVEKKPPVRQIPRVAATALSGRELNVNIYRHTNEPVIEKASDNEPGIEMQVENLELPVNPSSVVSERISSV
Nature of the data set: DRUGMATRIX: Serotonin (5-Hydroxytryptamine) 5-HT2C radioligand binding (ligand: [3H] Mesulergine). To be noted: Not Active = under 50% inhibition at 10 µM. The format is cell membranes, CHO-K1, Membrane.

The target of the next data set is T2, Thromboxane-A synthase (Homo sapiens, UniProt P24557).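 Note: enzyme inhibition assay with PGH2 supplied as substrate; in other assays of this panel Not Active means under 50% inhibition at 10 µM.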
T2 sequence (P24557 whole entry): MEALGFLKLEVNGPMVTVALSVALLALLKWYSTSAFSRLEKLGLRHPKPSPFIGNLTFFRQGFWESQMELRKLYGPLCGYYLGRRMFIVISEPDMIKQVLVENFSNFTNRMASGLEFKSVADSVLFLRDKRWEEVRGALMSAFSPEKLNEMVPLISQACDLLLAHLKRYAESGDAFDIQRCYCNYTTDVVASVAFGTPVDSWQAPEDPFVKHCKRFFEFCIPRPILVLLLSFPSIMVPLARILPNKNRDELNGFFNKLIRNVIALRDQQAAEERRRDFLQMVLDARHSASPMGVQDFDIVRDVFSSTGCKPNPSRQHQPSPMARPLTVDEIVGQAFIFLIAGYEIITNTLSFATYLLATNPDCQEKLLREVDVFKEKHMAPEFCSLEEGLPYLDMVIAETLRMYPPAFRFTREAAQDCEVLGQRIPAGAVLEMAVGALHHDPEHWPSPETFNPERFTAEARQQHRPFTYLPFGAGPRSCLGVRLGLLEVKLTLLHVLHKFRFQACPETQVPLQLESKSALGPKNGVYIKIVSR
Nature of the data set: biochemical. The format is tissue-based, Platelet. To be noted: platelet.

The nature of data set [2]: DRUGMATRIX: Phorbol Ester radioligand binding (ligand: [3H] PDBu). The format is cell membranes, Mus musculus, ICR, Brain, Membrane. To be noted: Not Active = under 50% inhibition at 10 µM.
Data set [3] can be described thus: DRUGMATRIX: Interleukin IL-1 radioligand binding (ligand: [125I] interleukin 1beta). The format is cell membranes, Membrane. The note with it: nih3t3; Not Active = under 50% inhibition at 10 µM.
For data set [4], the target named is T3, Type-2 angiotensin II receptor (Homo sapiens, UniProt P50052). Note: in other assays of this panel Not Active means under 50% inhibition at 10 µM.
T3 sequence (P50052 whole entry): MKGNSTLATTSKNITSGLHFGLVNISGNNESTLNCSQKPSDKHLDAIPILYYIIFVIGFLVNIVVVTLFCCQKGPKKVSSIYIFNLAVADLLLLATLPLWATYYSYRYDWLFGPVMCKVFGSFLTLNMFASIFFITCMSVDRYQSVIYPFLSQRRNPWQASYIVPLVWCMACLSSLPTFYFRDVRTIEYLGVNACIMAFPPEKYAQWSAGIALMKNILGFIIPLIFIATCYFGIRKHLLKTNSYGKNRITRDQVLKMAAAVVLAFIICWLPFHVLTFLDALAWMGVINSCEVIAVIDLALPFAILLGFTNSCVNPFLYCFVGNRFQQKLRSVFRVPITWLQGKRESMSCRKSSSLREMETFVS
The format is cell-based. The note with it: cho-k1.

In the next data set the target is Cytochrome P450 2C9 (Homo sapiens, UniProt P11712). To be noted: bti-tn-5b1-4. Note: in other assays of this panel Not Active means under 50% inhibition at 10 µM.
Sequence of Cytochrome P450 2C9 (P11712 whole entry): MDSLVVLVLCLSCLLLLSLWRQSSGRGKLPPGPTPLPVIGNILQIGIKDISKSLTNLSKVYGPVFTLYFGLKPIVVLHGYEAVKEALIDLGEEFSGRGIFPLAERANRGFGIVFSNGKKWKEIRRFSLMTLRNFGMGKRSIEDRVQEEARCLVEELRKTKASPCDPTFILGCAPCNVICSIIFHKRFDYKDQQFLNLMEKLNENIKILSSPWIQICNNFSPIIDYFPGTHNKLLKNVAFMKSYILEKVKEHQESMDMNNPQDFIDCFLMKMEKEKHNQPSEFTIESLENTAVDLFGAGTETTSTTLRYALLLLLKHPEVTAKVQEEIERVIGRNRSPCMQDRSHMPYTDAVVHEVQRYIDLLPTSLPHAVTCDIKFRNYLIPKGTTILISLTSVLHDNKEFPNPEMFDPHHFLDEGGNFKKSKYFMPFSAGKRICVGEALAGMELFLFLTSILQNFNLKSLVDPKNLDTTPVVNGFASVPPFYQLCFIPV
A further data set deals with T4, Calcitonin receptor (Homo sapiens, UniProt P30988).
T4 sequence (P30988 whole entry): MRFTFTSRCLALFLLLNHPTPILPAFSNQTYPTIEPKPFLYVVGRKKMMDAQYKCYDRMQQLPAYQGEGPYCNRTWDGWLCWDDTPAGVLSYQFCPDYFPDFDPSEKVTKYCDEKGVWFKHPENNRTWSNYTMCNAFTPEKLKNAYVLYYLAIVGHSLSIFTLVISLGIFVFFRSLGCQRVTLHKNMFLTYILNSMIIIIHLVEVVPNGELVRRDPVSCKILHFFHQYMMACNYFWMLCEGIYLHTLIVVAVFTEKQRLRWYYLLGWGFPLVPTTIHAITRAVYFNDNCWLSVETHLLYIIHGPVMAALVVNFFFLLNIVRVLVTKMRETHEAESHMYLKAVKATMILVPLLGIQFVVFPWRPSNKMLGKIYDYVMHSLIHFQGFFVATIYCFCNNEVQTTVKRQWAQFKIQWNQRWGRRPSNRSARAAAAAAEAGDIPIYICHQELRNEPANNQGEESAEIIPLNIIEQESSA
The format is cell membranes, Membrane. The note with it: t47d.

The target in data set [5] is Beta-1 adrenergic receptor (Homo sapiens, UniProt P08588). The experiment in a line: DRUGMATRIX: Adrenergic beta1 radioligand binding (ligand: [125I] Cyanopindolol). In kind it is cell membranes, CHO-K1, Membrane. To be noted: Not Active = under 50% inhibition at 10 µM.
Sequence of Beta-1 adrenergic receptor (P08588 whole entry): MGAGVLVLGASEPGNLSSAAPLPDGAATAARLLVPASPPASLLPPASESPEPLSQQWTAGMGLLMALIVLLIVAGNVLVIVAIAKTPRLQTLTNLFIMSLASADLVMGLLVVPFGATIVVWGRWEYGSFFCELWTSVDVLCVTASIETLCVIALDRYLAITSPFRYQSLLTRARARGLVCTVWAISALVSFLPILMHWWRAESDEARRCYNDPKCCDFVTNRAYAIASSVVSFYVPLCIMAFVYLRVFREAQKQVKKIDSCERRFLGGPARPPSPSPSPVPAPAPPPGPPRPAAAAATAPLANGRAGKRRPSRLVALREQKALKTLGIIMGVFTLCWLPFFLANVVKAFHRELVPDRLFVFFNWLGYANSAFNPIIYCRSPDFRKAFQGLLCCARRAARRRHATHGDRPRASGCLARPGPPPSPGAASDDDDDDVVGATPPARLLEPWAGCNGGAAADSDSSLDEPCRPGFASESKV

SMILES strings stand for the structures.

For `CC[C@H]1OC(=O)[C@H](C)[C@@H](O[C@H]2C[C@@](C)(OC)[C@@H](O)[C@H](C)O2)[C@H](C)[C@@H](O[C@@H]2O[C@H](C)C[C@H](N(C)C)[C@H]2O)[C@](C)(OC)C[C@@H](C)C(=O)[C@H](C)[C@@H](O)[C@]1(C)O` [CLARITHROMYCIN], the IC50 entry (in data set [1] (cho-k1); against Thromboxane-A synthase; in data set [2]; in data set [3]; in data set [4]; on Cytochrome P450 2C9) was “Not Active” in each case. For the same compound, the IC50 result (on Calcitonin receptor; in data set [5] (cho-k1)) was “Not Active” each time. Also, the Ki result (in data set [2]; in data set [3]; at Cytochrome P450 2C9) was “Not Active” each time.
`O=C(O)c1cc(=O)c2c(OCC(O)COc3cccc4oc(C(=O)O)cc(=O)c34)cccc2o1` [CROMOLYN]: the IC50 result (in data set [1] (cho-k1); on Thromboxane-A synthase; in data set [2]; in data set [3]; in data set [4]; at Cytochrome P450 2C9) was “Not Active” each time. The IC50 entry (on Calcitonin receptor; in data set [5] (cho-k1)) was “Not Active” throughout. Also, the Ki entry (in data set [2]; in data set [3]; at Cytochrome P450 2C9) was “Not Active” each time.
With `O=P1(N(CCCl)CCCl)NCCCO1` (centres undefined) [CYCLOPHOSPHAMIDE ANHYDROUS], the IC50 entry (in data set [1] (cho-k1); against Thromboxane-A synthase; in data set [2]; in data set [3]; in data set [4]; at Cytochrome P450 2C9) was “Not Active” in each case. Besides, the IC50 result (at Calcitonin receptor; in data set [5] (cho-k1)) was “Not Active” throughout. Moreover, the Ki entry (in data set [2]; in data set [3]; on Cytochrome P450 2C9) was “Not Active” each time.
Turning to `CC(=O)O[C@]1(C(C)=O)CC[C@H]2[C@@H]3C=C(Cl)C4=CC(=O)[C@@H]5C[C@@H]5[C@]4(C)[C@H]3CC[C@@]21C` [CYPROTERONE ACETATE], the IC50 result (in data set [1] (cho-k1); at Thromboxane-A synthase; in data set [2]; in data set [3]; in data set [4]; on Cytochrome P450 2C9) was “Not Active” throughout. The IC50 entry (at Calcitonin receptor; in data set [5] (cho-k1)) was “Not Active” each time. For the same compound, the Ki entry (in data set [2]; in data set [3]; on Cytochrome P450 2C9) was “Not Active” each time.
Regarding `Nc1nc(N)nc(NC2CC2)n1` [CYROMAZINE], the IC50 entry (in data set [1] (cho-k1); on Thromboxane-A synthase; in data set [2]; in data set [3]; in data set [4]; against Cytochrome P450 2C9) was “Not Active” throughout. Also, the IC50 entry (at Calcitonin receptor; in data set [5] (cho-k1)) was “Not Active” throughout. Further, the Ki result (in data set [2]; in data set [3]; on Cytochrome P450 2C9) was “Not Active” each time.
With `CCN[C@@H](C)Cc1cccc(C(F)(F)F)c1` [DEXFENFLURAMINE], the IC50 result (in data set [1] (cho-k1); on Thromboxane-A synthase; in data set [2]; in data set [3]; in data set [4]; against Cytochrome P450 2C9) was “Not Active” in each case. The IC50 entry (at Calcitonin receptor; in data set [5] (cho-k1)) was “Not Active” in each case. For the same compound, the Ki result (in data set [2]; in data set [3]; at Cytochrome P450 2C9) was “Not Active” in each case.
As for `C[C@H](C(=O)O)c1cccc(C(=O)c2ccccc2)c1` [DEXKETOPROFEN], the IC50 entry (in data set [1] (cho-k1); against Thromboxane-A synthase; in data set [2]; in data set [3]; in data set [4]; against Cytochrome P450 2C9) was “Not Active” throughout. Besides, the IC50 entry (at Calcitonin receptor; in data set [5] (cho-k1)) was “Not Active” in each case. In addition, the Ki result (in data set [2]; in data set [3]; on Cytochrome P450 2C9) was “Not Active” in each case.
For the compound `CN1C[C@H](C(=O)N[C@]2(C)O[C@@]3(O)[C@@H]4CCCN4C(=O)[C@H](Cc4ccccc4)N3C2=O)C[C@@H]2c3cccc4[nH]cc(c34)C[C@H]21` [DIHYDROERGOTAMINE], the IC50 in data set [1] (read-out: IC50) is 0.09 µM; against Thromboxane-A synthase, “Not Active”; in data set [2] it was “Not Active”; in data set [3] it was “Not Active”; in data set [4], “Not Active”; at Cytochrome P450 2C9, “Not Active”. The IC50 entry (on Calcitonin receptor; in data set [5] (cho-k1)) was “Not Active” each time. The Ki was 0.047 µM in data set [1] (read-out: Ki), “Not Active” in data set [2], “Not Active” in data set [3] and “Not Active” on Cytochrome P450 2C9.
For the compound `Cc1c(N(C)CS(=O)(=O)[O-])c(=O)n(-c2ccccc2)n1C.[Na+]` [DIPYRONE SODIUM], the IC50 result (in data set [1] (cho-k1); on Thromboxane-A synthase; in data set [2]; in data set [3]; in data set [4]; on Cytochrome P450 2C9) was “Not Active” in each case. The IC50 result (on Calcitonin receptor; in data set [5] (cho-k1)) was “Not Active” throughout. Further, the Ki result (in data set [2]; in data set [3]; at Cytochrome P450 2C9) was “Not Active” throughout.
On to `CC(CCc1ccc(O)cc1)NCCc1ccc(O)c(O)c1` (centres undefined) [DOBUTAMINE], for which the IC50 result (in data set [1] (cho-k1); against Thromboxane-A synthase; in data set [2]; in data set [3]; in data set [4]; against Cytochrome P450 2C9) was “Not Active” in each case. The values for the IC50 entry (at Calcitonin receptor; in data set [5] (read-out: IC50)) were “Not Active” and 1.94 µM, respectively. The Ki result in data set [2] is “Not Active”; in data set [3], “Not Active”; at Cytochrome P450 2C9, “Not Active”; in data set [5] (read-out: Ki) it was 1.12 µM.
Take `CCn1cc(C(=O)O)c(=O)c2cc(F)c(N3CCNCC3)nc21` [ENOXACIN]: the IC50 entry (in data set [1] (cho-k1); against Thromboxane-A synthase; in data set [2]; in data set [3]; in data set [4]; against Cytochrome P450 2C9) was “Not Active” each time. Moreover, the IC50 result (on Calcitonin receptor; in data set [5] (cho-k1)) was “Not Active” each time. The Ki result (in data set [2]; in data set [3]; on Cytochrome P450 2C9) was “Not Active” throughout.
On to `CCC(=O)O[C@H]1[C@H](O[C@@H]2[C@@H](C)[C@H](O[C@H]3C[C@@](C)(OC)[C@@H](O)[C@H](C)O3)[C@@H](C)C(=O)O[C@H](CC)[C@@](C)(O)[C@H](O)[C@@H](C)C(=O)[C@H](C)C[C@@]2(C)O)O[C@H](C)C[C@@H]1N(C)C` [ERYTHROMYCIN PROPIONATE], for which the IC50 result (in data set [1] (cho-k1); against Thromboxane-A synthase; in data set [2]; in data set [3]; in data set [4]; against Cytochrome P450 2C9) was “Not Active” throughout. Besides, the IC50 entry (on Calcitonin receptor; in data set [5] (cho-k1)) was “Not Active” throughout. Moreover, the Ki result (in data set [2]; in data set [3]; on Cytochrome P450 2C9) was “Not Active” throughout.

A word on the IC50: it is the point on the concentration scale where inhibition reaches its midpoint. For orientation: Ki means the dissociation constant of the complex between target and ligand, obtained from inhibition or displacement.
